In US6090828A, “5-aryleheteroarylalkyl-1,3,5-trisubstituted-1,2,4-triazole compounds for treatment of circulatory disorders” (priority 1997, dated 2000):
Like-named read-outs stand apart in the source and are kept apart here.

Tests used:
[1] = target: smooth muscle angiotensin II receptor; test: Assay A: Angiotensin II Binding Activity; conditions: 50% displacement of specifically bound 125I-AII; rat uterine membranes; pH 7.5; 25° C., 60 min
Description: Compounds of the invention were tested for ability to bind to the smooth muscle angiotensin II receptor using a rat uterine membrane preparation. […] Rat uterine membranes were prepared from fresh tissue. All procedures were carried out at 4° C. Uteri were stripped of fat and homogenized in phosphate-buffered saline at pH 7.4 containing 5 mM EDTA. The homogenate was centrifuged at 1500×g for 20 min., and the supernatant was recentrifuged at 100,000×g for 60 min. The pellet was resuspended in buffer consisting of 2 mM EDTA and 50 mM Tris-HCl (pH 7.5) to a final protein concentration of 4 mg/ml. […] The reaction was initiated by the addition of membrane protein and the mixture was incubated at 25° C. for 60 min. The incubation was terminated with ice-cold 50 mM Tris-HCl (pH 7.5) and the mixture was filtered to separate membrane-bound labelled peptide from the free ligand. The incubation tube and filter were washed with ice-cold buffer. Filters were assayed for radioactivity in a Micromedic gamma counter. Nonspecific binding was defined as binding in the presence of 10 μM of unlabelled AII. Specific binding was calculated as total binding minus nonspecific binding. […] Binding data were analyzed by a nonlinear least-squares curve fitting program.

rabbit aortic rings = target: T1, rabbit aortic rings (Oryctolagus cuniculus, UniProt P34976); test: Assay B: In Vitro Vascular Smooth Muscle Response for AII; parameters: species or system rabbit (male New Zealand white); conditions: rabbit aorta rings, two rabbits per antagonist, antagonist 10^-5 M, 5 minutes, AII contraction, Schild
T1 construct: The thoracic aorta was removed, cleaned of adherent fat and connective tissue and then cut into 3-mm ring segments; from tissue; host or cells: rabbit thoracic aorta rings, endothelium removed
T1 sequence (P34976 1-359): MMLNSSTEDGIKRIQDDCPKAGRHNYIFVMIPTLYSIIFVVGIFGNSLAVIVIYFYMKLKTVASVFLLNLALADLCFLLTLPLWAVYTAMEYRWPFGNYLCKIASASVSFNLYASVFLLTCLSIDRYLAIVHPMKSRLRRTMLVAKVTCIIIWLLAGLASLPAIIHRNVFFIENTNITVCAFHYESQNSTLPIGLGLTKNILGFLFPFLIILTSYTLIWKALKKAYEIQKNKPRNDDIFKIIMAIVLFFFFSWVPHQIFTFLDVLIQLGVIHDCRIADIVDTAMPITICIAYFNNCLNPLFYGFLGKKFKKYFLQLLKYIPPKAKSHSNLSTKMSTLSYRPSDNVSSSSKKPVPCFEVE
Description: The compounds of the invention were tested for antagonist activity in rabbit aortic rings. Male New Zealand white rabbits (2-2.5 kg) were sacrificed using an overdose of pentobarbital and exsanguinated via the carotid arteries. The thoracic aorta was removed, cleaned of adherent fat and connective tissue and then cut into 3-mm ring segments. The endothelium was removed from the rings by gently sliding a rolled-up piece of filter paper into the vessel lumen. The rings were then mounted in a water-jacketed tissue bath, maintained at 37° C., between moveable and fixed ends of a stainless steel wire with the moveable end attached to an FT03 Grass transducer coupled to a Model 7D Grass Polygraph for recording isometric force responses. […] The preparations were equilibrated for one hour before approximately one gram of passive tension was placed on the rings. Angiotensin II concentration-response curves were then recorded (3×10^-10 to 1×10^-5 M). Each concentration of AII was allowed to elicit its maximal contraction, and then AII was washed out repeatedly for 30 minutes before rechallenging with a higher concentration of AII. Aorta rings were exposed to the test antagonist at 10^-5 M for 5 minutes before challenging with AII. Adjacent segments of the same aorta ring were used for all concentration-response curves in the presence or absence of the test antagonist. […] The pA2 value is the concentration of the antagonist which increases the EC50 value for AII by a factor of two. Each test antagonist was evaluated in aorta rings from two rabbits.

pressor response to AII = test: Assay C: In Vivo Intragastric Pressor Assay Response for AII Antagonists; parameters: species or system rat (male Sprague-Dawley); conditions: 3 mg/kg (i.g.), AII 30 ng/kg i.v. bolus; for Duration: followed to 180 minutes; for inhibition in vivo at 3 mg/kg: Rattus norvegicus, po
Description: The catheters were tunneled subcutaneously to exit dorsally, posterior to the head and between the scapulae. The catheters were filled with heparin (1000 units/ml of saline). The rats were returned to their cage and allowed regular rat chow and water ad libitum. After full recovery from surgery (3-4 days), rats were placed in Lucite holders and the arterial line was connected to a pressure transducer. Arterial pressure was recorded on a Gould polygraph (mmHg). Angiotensin II was administered as a 30 ng/kg bolus via the venous catheter delivered in a 50 μl volume with a 0.2 ml saline flush. The pressor response in mm Hg was measured by the difference from pre-injection arterial pressure to the maximum pressure achieved. The AII injection was repeated every 10 minutes until three consecutive injections yielded responses within 4 mmHg of each other. These three responses were then averaged and represented the control response to AII. The test compound was suspended in 0.5% methylcellulose in water and was administered by gavage. The volume administered was 2 ml/kg body weight. The standard dose was 3 mg/kg. Angiotensin II bolus injections were given at 30, 45, 60, 75, 120, 150, and 180 minutes after gavage. The pressor response to AII was measured at each time point. The rats were then returned to their cage for future testing. A minimum of 3 days was allowed between tests. Percent inhibition was calculated for each time point following gavage by the following formula: [(Control Response-Response at time point)/Control Response]×100.

angiotensin II receptor = conditions: cited from earlier work; for angiotensin II antagonist activity: binding experiments, functional assays and in vivo tests, literature
[2] = read-out: pA2 (first of two values) (converted)
[3] = read-out: pA2 (second of two values) (converted)

IC50 [1]	Kb (rabbit aortic rings; [2])	Kb (rabbit aortic rings; [3])	Compound	Duration (pressor response to AII)	inhibition in vivo at 3 mg/kg (pressor response to AII; conscious rats)	residual agonist activity (angiotensin II receptor; background statement)	angiotensin II antagonist activity (angiotensin II receptor)	pA2 (first of two values) (rabbit aortic rings)	pA2 (second of two values) (rabbit aortic rings)	Inhibition (pressor response to AII; conscious rats)
0.026 µM	0.0832 µM	0.017 µM	CCCCn1nc(C(F)(F)CCC)nc1Cc1ccc(-c2ccccc2-c2nnn[nH]2)nc1 [Example 21, 5-[2-[5-[[1-butyl-3-(1,1-difluorobutyl)-1H-1,2,4-triazol-5-yl]methyl]-2-pyridinyl]phenyl]-1H-tetrazole]	> 180 min	40%	–	–	–	–	–
0.0098 µM	0.0204 µM	0.0282 µM	CCCCn1nc(C(OCC)OCC)nc1Cc1ccc(-c2ccccc2-c2nnn[nH]2)nc1 [Example 27, 5-[2-[5-[[1-butyl-3-diethoxymethyl-1H-1,2,4-triazol-5-yl]methyl]-2-pyridinyl]phenyl]-1H-tetrazole]	150 min	10%	–	–	–	–	–
0.021 µM	0.012 µM	0.0275 µM	CCCCn1nc(C(O)CCC)nc1Cc1ccc(-c2ccccc2-c2nnn[nH]2)nc1 (stereo not shown) [Example 10, 5-[2-[5-[[1-butyl-3-(1-hydroxybutyl)-1H-1,2,4-triazol-5-yl]methyl]-2-pyridinyl]phenyl]-1H-tetrazole]	150 min	10%	–	–	–	–	–
0.027 µM	–	–	CCCCn1nc(C(OC)OC)nc1Cc1ccc(-c2ccccc2-c2nnn[nH]2)nc1 [Example 26, 5-[2-[5-[[1-butyl-3-dimethoxymethyl-1H-1,2,4-triazol-5-yl]methyl]-2-pyridinyl]phenyl]-1H-tetrazole]	0 min	0%	–	–	–	–	–
0.014 µM	0.00933 µM	0.0158 µM	CCCCc1nc(Cc2ccc(-c3ccccc3-c3nnn[nH]3)nc2)n(CCCC)n1 [Example 1, 5-[2-[5-[(1,3-dibutyl-1H,1,2,4-triazol-5-yl)methyl]-2-pyridinyl]phenyl]-1H-tetrazole]	> 180 min	25%	–	–	–	–	–

Further lines, the compound ahead of its results:

Compound	IC50 [1]	Kb (rabbit aortic rings; [2])	Kb (rabbit aortic rings; [3])	Duration (pressor response to AII)	inhibition in vivo at 3 mg/kg (pressor response to AII; conscious rats)	residual agonist activity (angiotensin II receptor; background statement)	angiotensin II antagonist activity (angiotensin II receptor)	pA2 (first of two values) (rabbit aortic rings)	pA2 (second of two values) (rabbit aortic rings)	Inhibition (pressor response to AII; conscious rats)
CCCCn1nc(CCc2cccs2)nc1Cc1ccc(-c2ccccc2-c2nnn[nH]2)nc1 [Example 4, 5-[2-[5-[[1-butyl-3-[2-(2-thienyl)ethyl]-1H-1,2,4-triazol-5-yl]methyl]-2-pyridinyl]phenyl]-1H-tetrazole]	0.013 µM	0.00501 µM	0.0204 µM	> 180 min	25%	–	–	–	–	–
CCCn1nc(C(F)(F)CCC)nc1Cc1ccc(-c2ccccc2-c2nnn[nH]2)nc1 [Example 20, 5-[2-[5-[[1-propyl-3-(1,1-difluorobutyl)-1H-1,2,4-triazol-5-yl]methyl]-2-pyridinyl]phenyl]-1H-tetrazole]	0.15 µM	0.0166 µM	0.0263 µM	180 min	15%	–	–	–	–	–
CNCC(=O)N[C@@H](CCCN=C(N)N)C(=O)N[C@H](C(=O)N[C@@H](Cc1ccc(O)cc1)C(=O)N[C@H](C(=O)N[C@@H](Cc1cnc[nH]1)C(=O)N1CCC[C@H]1C(=O)N[C@@H](C)C(=O)O)C(C)C)C(C)C [Saralasin]	–	–	–	–	–	significant residual agonist activity	–	–	–	–
CCCCn1nc(C2OCC(C)(C)CO2)nc1Cc1ccc(-c2ccccc2-c2nnn[nH]2)nc1 [Example 32, 5-[2-[5-[[1-butyl-3-[2-(5,5-dimethyl-1,3-dioxanyl)]-1H-1,2,4-triazol-5-yl]methyl]-2-pyridinyl]phenyl]-1H-tetrazole]	0.021 µM	0.02 µM	0.0759 µM	180 min	20%	–	–	–	–	–
CCCCn1nc(C(=O)N(C)C(C)(C)C)nc1Cc1ccc(-c2ccccc2-c2nnn[nH]2)nc1 [Example 22, 5-[2-[5-[[1-butyl-3-(N-methyl-N-tertbutylamido)-1H-1,2,4-triazol-5-yl]methyl]-2-pyridinyl]phenyl]-1H-tetrazole]	0.028 µM	0.0302 µM	0.0776 µM	0 min	0%	–	–	–	–	–
CCCCn1nc(-c2ccccc2Cl)nc1Cc1ccc(-c2ccccc2-c2nnn[nH]2)nc1 [Example 9, 5-[2-[5-[[1-butyl-3-(2-chlorophenyl)-1H-1,2,4-triazol-5-yl]methyl]-2-pyridinyl]phenyl]-1H-tetrazole]	0.054 µM	0.00589 µM	0.00724 µM	> 180 min	30%	–	–	–	–	–
CCCCc1nc(Cl)c(CC(=O)O)n1Cc1ccccc1Cl [2-n-butyl-4-chloro-1-(2-chlorobenzyl)imidazole-5-acetic acid]	–	–	–	–	–	–	specific competitive angiotensin II antagonist activity	–	–	–
CCCCn1nc(C2OCCCO2)nc1Cc1ccc(-c2ccccc2-c2nnn[nH]2)nc1 [Example 31, 5-[2-[5-[[1-butyl-3-[2-(1,3-dioxanyl)]-1H-1,2,4-triazol-5-yl]methyl]-2-pyridinyl]phenyl]-1H-tetrazole]	0.02 µM	0.0275 µM	0.0708 µM	180 min	25%	–	–	–	–	–
CCCCc1nc(Cl)c(CC(=O)O)n1Cc1ccccc1[N+](=O)[O-] [2-butyl-4-choloro-1-(2-nitrobenzyl)imidazole-5-acetic acid]	–	–	–	–	–	–	specific competitive angiotensin II antagonist activity	–	–	–
5-[2-[5-[(1-butyl-3-propyl-1H-1,2,4-triazol-5-yl)methyl]-2-pyridinyl]phenyl]-1H-tetrazole [Example 3]	0.15 µM	–	–	140 min	–	–	–	7.46	7.23	10%
